Reference: patent US20060173009A1, “Agent inducing increase in bone mass” (priority 2003, published 2006)

Experiments:
[1] = tested on: osteoporosis model (rat OVX); assay: Osteoporosis model (rat OVX), Test 1: 12 weeks administration, compound A and incadronate; format: in vivo; conditions: for femoral bone strength (three-point bending test) / femoral cortical bone mineral density (pQCT) / femoral cortical bone thickness (pQCT): OVX rats, compound A 30 mg/kg twice a day oral, incadronate 1 mg/kg once a day oral; for femoral bone strength (three-point bending test): in comparison with Control Group 1 (FIG. 1); for femoral cortical bone mineral density (pQCT): in comparison with Control Group 1 (FIG. 2); for femoral cortical bone thickness (pQCT): in comparison with Control Group 1 (FIG. 3)
Procedure: (§1) Female SD rats of 16 weeks of age (Charles River Japan) were used in the test. Under anesthesia, both sides of ovaries were exposed, and ovaries of all groups excluding the sham operation group were ligated and extracted. In the sham operation group, only an operation of exposing ovaries to the outside of abdomen was carried out.
(§2) Preparation of the aforementioned model was carried out by referring to the method of Kalu et al., (Bone Miner., vol. 15, p. 175 (1991)) and the method of Frost et al., (Bone Miner., vol. 18, p. 227 (1992)).
Before carrying out the ovariectomy (OVX), bone mineral density at 5 mm from the tibial proximal end was measured by pQCT. By leaving for 8 weeks after the OVX, significant reduction of the bone mineral density was confirmed. […] The bone density was measured every 4 weeks after the administration, and urine samples were collected during 24 hours from the previous day of the completion of observation period. After completion of the urine collection, they were sacrificed by exsanguinations under ether anesthesia, and samples were collected.
Bone strength of the femoral diaphysis was measured by three-point bending test (TK-252c, mfd. by Muromachi Kikai). A femur was gently put on a supporting table of 20 mm in distance between supporting points, a bending load was applied on the midpoint of femur at a rate of 10 mm/min, and a load-deformation curve was recorded until its breakage. Maximum value of the load-deformation curve was used as the ultimate force, and the slope of the linear portion of the load-defomation curve was used as the stiffness.
Using a peripheral quantitative computed tomography (PQCT, XCT960A, mfd. by Norland-Stratec), cross-section of the bone was scaned, and bone mineral density and the like various parameters were calculated by analyzing the image.
As a bone metabolism marker, measurement of lysylpyridinoline (deoxypyridinoline hereinafter) value was carried out by SRL MediSearch using an HPLC method (Uebelhart, D et al., Bone Miner., vol. 8, p. 87 (1990)). In order to exclude influence of urine volume, the thus obtained deoxypyridinoline value was corrected by dividing the value by urine creatinine concentration or multiplying the 24 hour urine volume.
The compound of Production Example 93 (6-(4-fluoropiperidin-1-yl)-3-(6-methoxypyridin-2-yl)-1,2,4-triazolo[4,3-b]pyridazine: to be referred to as compound A hereinafter) which is a typical compound of the compound (I) was used as the non-living body-derived non-peptide osteoblast differentiation promoting compound of the invention, and incadronate (Bisphonal (registered trademark)) as the bisphosphonate, respectively. Groups in which the compound A or incadronate alone and a parathyroid hormone hPTH(1-34) are to be administered were used as comparative groups. In addition, the drug-non-administered OVX group and the sham operation group were used as control groups. The compound A was orally administered twice a day as a 0.5% methyl cellulose suspension of 30 mg/5 ml/kg, and incadronate was orally administered once a day as an aqueous solution of 1 mg/2.5 ml/kg. The hPTH(1-34) was subcutaneously administered once a day as a physiological saline solution of 3 μg/1 ml/kg. To the control groups was orally administered 0.5% methyl cellulose twice a day.

[2] = tested on: osteoporosis model (rat OVX); assay: Osteoporosis model (rat OVX), Test 2: 4 weeks administration, compound A and alendronate; format: in vivo; conditions: Test 2, OVX rats, 24 hour urine 5 weeks after the administration, EIA method (FIG. 7)
Procedure: as §1, §2
Before carrying out the ovariectomy (OVX), bone mineral density of tibial metaphysis at 5 mm from the tibial proximal end was measured by pQCT. By leaving for 8 weeks after the OVX, significant reduction of the bone mineral density of tibial metaphysis was confirmed by re-measurement. […] After 4 weeks of the administration, the cortical bone thickness and bone mineral density of the tibial diaphysis were measured in the same manner as described in the above. In addition, urine samples were collected during 24 hours 5 weeks after the administration, and the urinary deoxypyridinoline was measured by an EIA method (Osteolinks “DPD”, mfd. by Sumitomo Pharmaceutical Biomedical). […]

| Structure (SMILES) | femoral bone strength (three-point bending test) [1] | femoral cortical bone mineral density (pQCT) [1] | femoral cortical bone thickness (pQCT) [1] | urinary deoxypyridinoline value (urine volume correction), bone resorption index ([1]; Test 1, OVX rats, 24 hour urine, HPLC method (FIG. 4)) | urinary deoxypyridinoline value (urine volume correction), bone resorption index [2] |
| --- | --- | --- | --- | --- | --- |
| COc1cccc(-c2nnc3ccc(N4CCC(F)CC4)nn23)n1 [compound A, 6-(4-fluoropiperidin-1-yl)-3-(6-methoxypyridin-2-yl)-1,2,4-triazolo[4,3-b]pyridazine] | increasing tendency | increasing tendency | increasing tendency | increased | increased |
| O=P(O)(O)C(NC1CCCCCC1)P(=O)(O)O [incadronate, reference compound] | increasing tendency | increasing tendency | increasing tendency | – | – |
